ChEMBL document CHEMBL1201862, “PubChem BioAssay data set” (2004)
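Results reflect a 48-hour exposure of cells in 96-well plates to compound at five concentrations. GI50 marks 50% less growth.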 The source made the active and inactive calls. Cut-off read from the data, not from the text of the source: active = GI50 up to about 1.1 µM and inactive = higher.

Key:
Assay in all cases: NCI-60 cell line screen, 48 h
M14 = test system: M14
DU-145 = test system: DU-145
SK-OV-3 = test system: SK-OV-3
SNB-19 = test system: SNB-19
HCT-116 = test system: HCT-116
OVCAR-3 = test system: OVCAR-3
Malme-3M = test system: Malme-3M
SK-MEL-28 = test system: SK-MEL-28
SF-539 = test system: SF-539
MDA-MB-435 = test system: MDA-MB-435
HCC 2998 = test system: HCC 2998
A498 = test system: A498
A549 = test system: A549
NCI/ADR-RES = test system: NCI/ADR-RES
EKVX = test system: EKVX
T47D = test system: T47D
MCF7 = test system: MCF7
CAKI-1 = test system: CAKI-1
NCI-H522 = test system: NCI-H522
K562 = test system: K562
OVCAR-4 = test system: OVCAR-4
SF-268 = test system: SF-268
OVCAR-8 = test system: OVCAR-8
ACHN = test system: ACHN
UO-31 = test system: UO-31
RPMI-8226 = test system: RPMI-8226
Hs-578T = test system: Hs-578T
MDA-N = test system: MDA-N
NCI-H23 = test system: NCI-H23
RXF 393 = test system: RXF 393
HT-29 = test system: HT-29
HOP-92 = test system: HOP-92
LOX IMVI = test system: LOX IMVI
HCT-15 = test system: HCT-15
SK-MEL-2 = test system: SK-MEL-2
BT-549 = test system: BT-549
IGROV-1 = test system: IGROV-1
OVCAR-5 = test system: OVCAR-5
SF-295 = test system: SF-295
COLO 205 = test system: COLO 205
MDA-MB-231 = test system: MDA-MB-231
HOP-62 = test system: HOP-62
SN12C = test system: SN12C
CCRF-CEM = test system: CCRF-CEM
NCI-H226 = test system: NCI-H226
SW-620 = test system: SW-620
U-251 = test system: U-251
786-0 = test system: 786-0
UACC-257 = test system: UACC-257
SNB-75 = test system: SNB-75
KM12 = test system: KM12
UACC-62 = test system: UACC-62
SR = test system: SR
PC-3 = test system: PC-3
TK-10 = test system: TK-10
MOLT-4 = test system: MOLT-4
SK-MEL-5 = test system: SK-MEL-5
NCI-H460 = test system: NCI-H460
HL-60 = test system: HL-60

Measured: GI50

CC(=O)C(=[N+]=[N-])C(=O)NCC#N
active: SNB-75 0.441 µM
> 10 µM: HCT-15
inactive: M14 > 10 µM | DU-145 > 10 µM | SK-OV-3 > 10 µM | SNB-19 > 10 µM | HCT-116 > 10 µM | OVCAR-3 > 10 µM | Malme-3M > 10 µM | SK-MEL-28 > 10 µM | SF-539 > 10 µM | MDA-MB-435 > 10 µM | HCC 2998 > 10 µM | A498 > 10 µM | A549 > 10 µM | NCI/ADR-RES > 10 µM | EKVX > 10 µM | T47D > 10 µM | MCF7 > 10 µM | CAKI-1 > 10 µM | NCI-H522 > 10 µM | K562 > 10 µM | OVCAR-4 > 10 µM | SF-268 > 10 µM | OVCAR-8 > 10 µM | ACHN > 10 µM | UO-31 > 10 µM | RPMI-8226 > 10 µM | Hs-578T > 10 µM | MDA-N > 10 µM | NCI-H23 > 10 µM | RXF 393 > 10 µM | HT-29 > 10 µM | HOP-92 > 10 µM | LOX IMVI > 10 µM | SK-MEL-2 > 10 µM | BT-549 > 10 µM | IGROV-1 > 10 µM | OVCAR-5 > 10 µM | SF-295 > 10 µM | COLO 205 > 10 µM | MDA-MB-231 > 10 µM | HOP-62 > 10 µM | SN12C > 10 µM | CCRF-CEM > 10 µM | NCI-H226 > 10 µM | SW-620 > 10 µM | U-251 > 10 µM | 786-0 > 10 µM | UACC-257 > 10 µM | KM12 6.93 µM | UACC-62 > 10 µM | SR > 10 µM | PC-3 > 10 µM | TK-10 > 10 µM | MOLT-4 > 10 µM | SK-MEL-5 > 10 µM | NCI-H460 > 10 µM | HL-60 > 10 µM

N=C(c1cccs1)C1(N2CCCCC2)CCCCC1
inactive: M14 20.3 µM | DU-145 15.8 µM | SK-OV-3 19.6 µM | SNB-19 17.5 µM | HCT-116 42.2 µM | OVCAR-3 15.3 µM | Malme-3M 14.6 µM | MDA-MB-435 18.2 µM | HCC 2998 14.1 µM | A498 17.7 µM | A549 27.7 µM | NCI/ADR-RES 25.4 µM | EKVX 20.9 µM | T47D 11.6 µM | MCF7 16.6 µM | CAKI-1 15.3 µM | NCI-H522 14.8 µM | K562 16.4 µM | OVCAR-4 20.5 µM | SF-268 21.1 µM | ACHN 16.9 µM | UO-31 16.1 µM | RPMI-8226 16.5 µM | Hs-578T 57.4 µM | MDA-N 49.5 µM | NCI-H23 24.3 µM | RXF 393 14.6 µM | HT-29 17.3 µM | HOP-92 20.8 µM | LOX IMVI 28.2 µM | SK-MEL-2 16.6 µM | BT-549 24.5 µM | IGROV-1 22.3 µM | OVCAR-5 19.4 µM | SF-295 18.2 µM | MDA-MB-231 16.6 µM | HOP-62 20.3 µM | SN12C 33.8 µM | CCRF-CEM 17.7 µM | SW-620 16.6 µM | U-251 16.4 µM | 786-0 70.5 µM | UACC-257 15.6 µM | KM12 17.6 µM | UACC-62 14.9 µM | SR 16.9 µM | PC-3 18.7 µM | TK-10 17.3 µM | MOLT-4 15.7 µM | NCI-H460 15.7 µM | HL-60 13.2 µM
14.8 µM: HCT-15

CC(C)c1[nH]nc(C(N)=O)c1/N=N/N(C)C
inactive: M14 > 100 µM | DU-145 97.9 µM | SK-OV-3 52.5 µM | SNB-19 > 100 µM | HCT-116 98.4 µM | OVCAR-3 > 100 µM | Malme-3M > 100 µM | SK-MEL-28 > 100 µM | SF-539 69.2 µM | MDA-MB-435 82.2 µM | HCC 2998 > 100 µM | A498 > 100 µM | A549 23.7 µM | NCI/ADR-RES > 100 µM | EKVX 47.9 µM | T47D 79.6 µM | MCF7 28.4 µM | CAKI-1 16 µM | NCI-H522 24.4 µM | K562 79.8 µM | OVCAR-4 > 100 µM | SF-268 59.8 µM | OVCAR-8 > 100 µM | ACHN 65 µM | RPMI-8226 60.7 µM | Hs-578T 54.7 µM | MDA-N > 100 µM | NCI-H23 > 100 µM | RXF 393 63.1 µM | HT-29 > 100 µM | HOP-92 47.4 µM | LOX IMVI 35.7 µM | SK-MEL-2 > 100 µM | BT-549 34.9 µM | IGROV-1 > 100 µM | SF-295 64.7 µM | COLO 205 67.9 µM | MDA-MB-231 > 100 µM | HOP-62 > 100 µM | SN12C 75.3 µM | CCRF-CEM 36.6 µM | NCI-H226 24.1 µM | SW-620 > 100 µM | U-251 49.7 µM | 786-0 > 100 µM | UACC-257 > 100 µM | SNB-75 44.8 µM | KM12 61.1 µM | UACC-62 67.9 µM | SR 17.1 µM | PC-3 > 100 µM | TK-10 64.7 µM | MOLT-4 31.9 µM | SK-MEL-5 88.1 µM | NCI-H460 42.5 µM | HL-60 > 100 µM
active: UO-31 0.237 µM
> 100 µM: HCT-15
